According to US11945796B2, “Substituted pyridine derivatives as SARM1 inhibitors” (Nura Bio, Inc., priority 2020, dated 2024):

Each compound was assayed against T1, human SARM1(50-724) (Homo sapiens, UniProt Q6SZW1) (assay: SARM1 NADase biochemical assay (HPLC peak areas of NAD and NAM)). Details: 50 μM compound; NAD peak area; read-out: Avg NAD % inhibition at 50 μM.
T1 construct: 40 nM human SARM1(50-724)
T1 sequence (Q6SZW1 50-724): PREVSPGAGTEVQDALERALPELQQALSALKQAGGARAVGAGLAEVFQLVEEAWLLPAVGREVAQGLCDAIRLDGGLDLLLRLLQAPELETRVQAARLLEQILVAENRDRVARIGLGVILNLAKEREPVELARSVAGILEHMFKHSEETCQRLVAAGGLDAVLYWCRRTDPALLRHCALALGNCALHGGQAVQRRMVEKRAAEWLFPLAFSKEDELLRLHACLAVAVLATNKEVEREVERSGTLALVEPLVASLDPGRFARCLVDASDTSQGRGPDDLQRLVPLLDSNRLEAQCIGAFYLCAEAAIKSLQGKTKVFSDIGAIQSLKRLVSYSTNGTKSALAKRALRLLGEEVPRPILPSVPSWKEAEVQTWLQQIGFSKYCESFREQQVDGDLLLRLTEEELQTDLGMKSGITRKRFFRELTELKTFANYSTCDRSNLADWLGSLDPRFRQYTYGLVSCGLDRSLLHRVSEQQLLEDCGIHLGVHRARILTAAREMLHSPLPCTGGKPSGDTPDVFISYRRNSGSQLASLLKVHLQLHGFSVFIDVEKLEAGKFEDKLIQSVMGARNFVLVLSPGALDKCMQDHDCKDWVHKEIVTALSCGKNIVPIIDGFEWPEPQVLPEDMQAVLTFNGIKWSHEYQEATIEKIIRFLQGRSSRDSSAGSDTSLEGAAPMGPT
Method: The reaction was incubated at room temperature for 60 minutes and quenched with 20 μL of 0.4% formic acid. […] Total run time for each sample was 4 minutes. […] Samples were run at a flow rate of 0.8 mL/min at 55° C. Peak areas of NAD and NAM were determined using OpenLAB CDS (Chem Station edition) software. For dose-response, the compound was diluted serially 1:3 in DMSO and added to the reaction starting at a final compound concentration of 100 μM in 1% DMSO.

SMILES	inhibition at 50 µM
CC(c1ccncc1)n1ccc(C=O)n1 (racemic) [Example 108, (rac)-1-[1-(Pyridin-4-yl)ethyl]-1H-pyrazole-3-carbaldehyde]	0 to 50%
FC(F)(F)CNc1ccn(Cc2ccncc2)n1 [Example 26, 1-(Pyridin-4-ylmethyl)-N-(2,2,2-trifluoroethyl)-1H-pyrazol-3-amine]	0 to 50%
O=C(CCc1cccc(Cl)c1)Nc1ccn(Cc2ccncc2)n1 [Example 32, 3-(3-Chlorophenyl)-N-(1-(pyridin-4-ylmethyl)-1H-pyrazol-3-yl)propanamide]	0 to 50%

Same assay, conditions: 50 μM compound; NAM peak area; read-out: Avg NAM % inhibition at 50 μM

SMILES	inhibition at 50 µM
CC(c1ccncc1)n1ccc(C=O)n1 (racemic) [Example 108, (rac)-1-[1-(Pyridin-4-yl)ethyl]-1H-pyrazole-3-carbaldehyde]	0 to 50%
FC(F)(F)CNc1ccn(Cc2ccncc2)n1 [Example 26, 1-(Pyridin-4-ylmethyl)-N-(2,2,2-trifluoroethyl)-1H-pyrazol-3-amine]	0 to 50%
O=C(CCc1cccc(Cl)c1)Nc1ccn(Cc2ccncc2)n1 [Example 32, 3-(3-Chlorophenyl)-N-(1-(pyridin-4-ylmethyl)-1H-pyrazol-3-yl)propanamide]	0 to 50%

Same assay, conditions: dose-response, 1:3 serial dilution from 100 μM; 40 nM SARM1, 0.3 mM NMN, 20 μM NAD, 60 min rt

SMILES	IC50
CC(c1ccncc1)n1ccc(Nc2nccs2)n1 (racemic) [Example 1, (rac)-N-(1-(1-(Pyridin-4-yl)ethyl)-1H-pyrazol-3-yl)thiazol-2-amine]	< 1 µM
CC(c1ccncc1)n1ccc(NCC#N)n1 (racemic) [Example 5, (rac)-2-((1-(1-(Pyridin-4-yl)ethyl)-1H-pyrazol-3-yl)amino)acetonitrile]	1 to 10 µM
CC(C)Cn1ccc(C(C)c2ccncc2)n1 (racemic) [Example 11, (rac)-4-(1-(1-Isobutyl-1H-pyrazol-3-yl)ethyl)pyridine]	1 to 10 µM
Cc1cnccc1C(C)n1ccc(NCC(F)(F)F)n1 (racemic) [Example 14, (rac)-1-(1-(3-Methylpyridin-4-yl)ethyl)-N-(2,2,2-trifluoroethyl)-1H-pyrazol-3-amine]	1 to 10 µM
CC(c1ccncc1)c1ccn(CC(F)F)n1 (racemic) [Example 18, (rac)-4-(1-(1-(2,2-Difluoroethyl)-1H-pyrazol-3-yl)ethyl)pyridine]	1 to 10 µM
CC(c1ccncc1)n1ccc(NC(=O)c2ccc3c(c2)OCO3)n1 (racemic) [Example 19, (rac)-N-(1-(1-(Pyridin-4-yl)ethyl)-1H-pyrazol-3-yl)benzo[d][1,3]dioxole-5-carboxamide]	1 to 10 µM
[2H]C([2H])([2H])C(c1ccncc1)c1ccn(CC(F)(F)F)n1 (racemic) [Example 21, (rac)-4-(1-(1-(2,2,2-Trifluoroethyl)-1H-pyrazol-3-yl)ethyl-2,2,2-d3)pyridine]	1 to 10 µM
CC(c1ccncc1)c1nn(CC(F)(F)F)cc1F (racemic) [Example 22, (rac)-4-(1-(4-Fluoro-1-(2,2,2-trifluoroethyl)-1H-pyrazol-3-yl)ethyl)pyridine]	1 to 10 µM
CC(c1ccncc1)c1ccn(CC(F)(F)F)n1 (racemic) [Example 24, (rac)-4-(1-(1-(2,2,2-Trifluoroethyl)-1H-pyrazol-3-yl)ethyl)pyridine]	< 1 µM
[2H]C([2H])([2H])C(c1ccncc1)c1ccn(CC(F)F)n1 (racemic) [Example 25, (rac)-4-(1-(1-(2,2-Difluoroethyl)-1H-pyrazol-3-yl)ethyl-2,2,2-d3)pyridine]	1 to 10 µM
FC(c1ccncc1)c1ccn(CC(F)(F)F)n1 (racemic) [Example 79, (rac)-4-(Fluoro(1-(2,2,2-trifluoroethyl)-1H-pyrazol-3-yl)methyl)pyridine]	10 to 100 µM
[2H]C([2H])([2H])C([2H])(c1ccncc1)c1ccn(CC(F)(F)F)n1 (racemic) [Example 80, (rac)-4-(1-(1-(2,2,2-Trifluoroethyl)-1H-pyrazol-3-yl)ethyl-1,2,2,2-d4)pyridine]	< 1 µM
FC(F)(F)Cn1ccc(C(Cl)c2ccncc2)n1 (racemic) [Example 81, (rac)-4-(Chloro(1-(2,2,2-trifluoroethyl)-1H-pyrazol-3-yl)methyl)pyridine]	10 to 100 µM
[2H]C(C)(c1ccncc1)c1ccn(CC(F)(F)F)n1 (racemic) [Example 82, (rac)-4-(1-(1-(2,2,2-Trifluoroethyl)-1H-pyrazol-3-yl)ethyl-1-d)pyridine]	< 1 µM
CC(c1ccncc1)c1ccn(Cc2ccccc2)n1 (racemic) [Example 92, (rac)-4-(1-(1-Benzyl-1H-pyrazol-3-yl)ethyl)pyridine]	10 to 100 µM
CCC(c1ccncc1)n1ccc(NCC(F)(F)F)n1 (racemic) [Example 99, (rac)-1-(1-(Pyridin-4-yl)propyl)-N-(2,2,2-trifluoroethyl)-1H-pyrazol-3-amine]	10 to 100 µM
CC(c1ccncc1)n1ccc(NC(C)C(F)(F)F)n1 (racemic) [Example 100, (rac)-1-(1-(Pyridin-4-yl)ethyl)-N-(1,1,1-trifluoropropan-2-yl)-1H-pyrazol-3-amine]	1 to 10 µM
CC(c1ccncc1)n1ccc(NCC(F)F)n1 (racemic) [Example 101, (rac)-N-(2,2-Difluoroethyl)-1-(1-(pyridin-4-yl)ethyl)-1H-pyrazol-3-amine]	< 1 µM
Fc1cn(Cc2ccncc2)nc1CC(F)(F)F (racemic) [Example 104, 4-{[4-Fluoro-3-(2,2,2-trifluoroethyl)-1H-pyrazol-1-yl]methyl}pyridine]	1 to 10 µM

SMILES	IC50
CC(c1ccncc1)n1ccc(CC(F)F)n1 (racemic) [Example 107, (rac)-4-{1-[3-(2,2-Difluoroethyl)-1H-pyrazol-1-yl]ethyl}pyridine]	1 to 10 µM
CC(c1ccn(CC(F)(F)F)n1)c1ccncc1Cl (racemic) [Example 112, (rac)-3-Chloro-4-(1-(1-(2,2,2-trifluoroethyl)-1H-pyrazol-3-yl)ethyl)pyridine]	1 to 10 µM
CC(c1ccncc1)c1ccn(CC#N)n1 (single isomer, unassigned) [Example 12a]	1 to 10 µM
CC(c1ccncc1)c1ccn(CC#N)n1 (single isomer, unassigned) [Example 12b]	< 1 µM
C[C@H](c1ccn(CC(F)(F)F)n1)c1ccncc1Cl (single isomer, unassigned) [Example 113a]	1 to 10 µM
C[C@@H](c1ccncc1)n1ccc(NCC(F)(F)F)n1 [Example 2, (S)-1-(1-(Pyridin-4-yl)ethyl)-N-(2,2,2-trifluoroethyl)-1H-pyrazol-3-amine]	< 1 µM
FC(F)CNc1ccn(Cc2ccncc2)n1 [Example 3, N-(2,2-Difluoroethyl)-1-(pyridin-4-ylmethyl)-1H-pyrazol-3-amine]	1 to 10 µM
c1cc(Cn2ccc(Nc3nccs3)n2)ccn1 [Example 4, N-(1-(Pyridin-4-ylmethyl)-1H-pyrazol-3-yl)thiazol-2-amine]	1 to 10 µM
N#CCn1ccc(Cc2ccncc2)n1 [Example 9, 2-(3-(Pyridin-4-ylmethyl)-1H-pyrazol-1-yl)acetonitrile]	1 to 10 µM
FC(F)Cn1ccc(Cc2ccncc2)n1 [Example 10, 4-((1-(2,2-Difluoroethyl)-1H-pyrazol-3-yl)methyl)pyridine]	1 to 10 µM
O=C(Nc1ccn(Cc2ccncc2)n1)C(C(F)(F)F)C(F)(F)F [Example 15, 3,3,3-trifluoro-N-(1-(pyridin-4-ylmethyl)-1H-pyrazol-3-yl)-2-(trifluoromethyl)propanamide]	1 to 10 µM
FC(F)(F)C(CNc1ccn(Cc2ccncc2)n1)C(F)(F)F [Example 16, 1-(Pyridin-4-ylmethyl)-N-(3,3,3-trifluoro-2-(trifluoromethyl)propyl)-1H-pyrazol-3-amine]	1 to 10 µM
N#CCNc1ccn(Cc2ccncc2)n1 [Example 17, 2-((1-(Pyridin-4-ylmethyl)-1H-pyrazol-3-yl)amino)acetonitrile]	1 to 10 µM
FC(F)(F)Cn1ccc(Cc2ccncc2)n1 [Example 20, 4-((1-(2,2,2-Trifluoroethyl)-1H-pyrazol-3-yl)methyl)pyridine]	1 to 10 µM
Cc1cnccc1Cc1ccn(CC(F)(F)F)n1 [Example 23, 3-Methyl-4-((1-(2,2,2-trifluoroethyl)-1H-pyrazol-3-yl)methyl)pyridine]	1 to 10 µM
FC(F)(F)CNc1ccn(Cc2ccncc2)n1 [Example 26, 1-(Pyridin-4-ylmethyl)-N-(2,2,2-trifluoroethyl)-1H-pyrazol-3-amine]	10 to 100 µM
FC(F)(F)Cc1ccn(Cc2ccncc2)n1 [Example 29, 4-((3-(2,2,2-Trifluoroethyl)-1H-pyrazol-1-yl)methyl)pyridine]	< 1 µM
N#CCc1ccn(Cc2ccncc2)n1 [Example 30, 2-(1-(Pyridin-4-ylmethyl)-1H-pyrazol-3-yl)acetonitrile]	1 to 10 µM

Same assay, conditions: read-out: Avg NAD % inhibition at 50 μM

SMILES	inhibition at 50 µM
CC(c1ccncc1)n1ccc(N(C)c2nccs2)n1 (racemic) [Example 91, (rac)-N-Methyl-N-(1-(1-(pyridin-4-yl)ethyl)-1H-pyrazol-3-yl)thiazol-2-amine]	0 to 50%
FC(c1ccncc1)n1ccc(CC(F)(F)F)n1 (racemic) [Example 105, (rac)-4-{Fluoro[3-(2,2,2-trifluoroethyl)-1H-pyrazol-1-yl]methyl}pyridine]	0 to 50%

Same assay, conditions: read-out: Avg NAM % inhibition at 50 μM

SMILES	inhibition at 50 µM
CC(c1ccncc1)n1ccc(N(C)c2nccs2)n1 (racemic) [Example 91, (rac)-N-Methyl-N-(1-(1-(pyridin-4-yl)ethyl)-1H-pyrazol-3-yl)thiazol-2-amine]	0 to 50%
FC(c1ccncc1)n1ccc(CC(F)(F)F)n1 (racemic) [Example 105, (rac)-4-{Fluoro[3-(2,2,2-trifluoroethyl)-1H-pyrazol-1-yl]methyl}pyridine]	0 to 50%
